Reference: patent US4950647A, “T cell immunopotentiator” (Nucleic Acid Research Institute, priority 1988, dated 1990)
“Also recorded” adds a separate entry of the source. Like-named read-outs stand apart in the source and are kept apart here.

Key:
[1] = tested on: lymphocytes (peripheral blood mononuclear cells); assay: Pokeweed mitogen (PWM) induced lymphocyte proliferation; assay type: cell-based, human; parameters: 3H-thymidine incorporation: unit not given here
Method: Peripheral blood mononuclear cells were isolated from heparinized peripheral blood of normal healthy donors as described in Sharma, B. and S. Gupta, "Antigen-specific primary cytotoxic T lymphocyte response in acquired immune deficiency syndrome (AIDS) and AIDS related complex", Clin. Exp. Immunol., 62:296, 1985. Briefly, blood was diluted 1:1 with Hanks balanced salt solution (HBSS). Peripheral blood mononuclear cells were separated on a Ficoll-Hypaque gradient. The peripheral blood mononuclear cells recovered from the interface were washed three times with HBSS and resuspended in RPMI-1640 containing 100 U/ml penicillin, 100 μg/ml streptomycin 2mM L-glutamine (GIBCO, Grand Island, N.Y.), and 10% heat-inactivated pooled A serum (Irvine Scientific, Irvine, Calif.), hereafter referred as complete medium (CM). […] T. Terasaki, "Effect of water soluble adjuvants on in vitro lymphocyte immunization", Cancer Res. 35:666, 1975. […] The culture were set up in quadruplicate and pulsed with [^3 H]-thymidine for 16 hr and the [^3 H] thymidine incorporation was determined.

[2] = tested on: B cells (human peripheral blood mononuclear cells); assay: Staphylococcus aureus cowan (SAC) induced B cell proliferation; assay type: cell-based; parameters: 3H-thymidine incorporation: unit not given here
Method: (§1) Peripheral blood mononuclear cells were isolated from heparinized peripheral blood of normal healthy donors as described in Sharma, B. and S. Gupta, "Antigen-specific primary cytotoxic T lymphocyte response in acquired immune deficiency syndrome (AIDS) and AIDS related complex", Clin. Exp. Immunol., 62:296, 1985. Briefly, blood was diluted 1:1 with Hanks balanced salt solution (HBSS). Peripheral blood mononuclear cells were separated on a Ficoll-Hypaque gradient. The peripheral blood mononuclear cells recovered from the interface were washed three times with HBSS and resuspended in RPMI-1640 containing 100 U/ml penicillin, 100 μg/ml streptomycin 2mM L-glutamine (GIBCO, Grand Island, N.Y.), and 10% heat-inactivated pooled A serum (Irvine Scientific, Irvine, Calif.), hereafter referred as complete medium (CM).
Peripheral blood mononuclear cells (1×10^5 /0.2 ml/well) were incubated with different concentrations of Staphylococcus aureus cowan (1:[…] and 1:10,000 dilutions) in the presence and absence of 6-amino-(2-deoxy-α-D-erythro-pentofuranosyl)-imidazo[4,5,-C]pyridin- 4-one for 4 days. The cultures were pulsed with [^3 H]-thymidine and then the incorporation of [^3 H]thymidine was measured.
To further evaluate the effect on B cell response, human peripheral blood mononuclear cells were cultured with Staphylococcus aureus cowan in the presence and absence of 6-amino-(2-deoxy-α-D-erythro-pentofuranosyl)-imidazo[4,5,-C]pyridin- 4-one.

[3] = tested on: T lymphocytes (peripheral blood mononuclear cells); assay: Cyclosporin A induced suppression of lymphocyte response to phytohemagglutinin / T cell mitogens, and its restoration; assay type: cell-based, human
Method: as §1
Cultures were pulsed for 16 hr and [^3 H]-thymidine incorporation was measured.
Peripheral blood mononuclear cells from normal donors were incubated with T cell mitogens in the presence and absence of this compound and then [^3 H-thymidine incorporation was measured.
Peripheral blood mononuclear cells were cultured with phytohemagglutinin in the presence of CsA (10 and 50 ng/0.2 ml) and 6-amino-(2-deoxy-α-D-erythro-pentofuranosyl)-imidazo[4,5,-C]pyridin- 4-one. Lymphocytes proliferation was determined by ^3 H-thymidine incorporation.

[4] = tested on: B target cells (PHA induced lymphoblasts of donor B); assay: Generation of antigen-specific primary cytotoxic T lymphocytes, 51Cr release, target B; assay type: cell-based, human; conditions: for % Specific Cytotoxicity: Exp. 1, A + Bx, no compound 7
Method: Peripheral blood mononuclear cells from healthy donor A and C were cultured together with irradiated (3000 R) peripheral blood mononuclear cells from donor B and irradiated cells (SX) from B cells of the SB cell line, respectively, for five days. At the end of the incubation period, the cells were washed and resuspended in medium and then their cytotoxic activity was determined against the specific lymphoblast target cell B or S according to the procedure of Sharma and Gupta noted above.

[5] = Revankar et al. 1984; cited from earlier work
[6] = listed as 6-Amino-(2-deoxy-α-D-erythro-pentofuranosyl)-imidazo[4,5,-C]pyridin-4-one

Nc1cc2c(ncn2[C@@H]2C[C@H](O)[C@@H](CO)O2)c(O)n1 [Test Compound, 6-amino-1-(2-deoxy-α-D-erythro-pentofuranosyl)imidazo[4,5-C]-pyridin-4-one]
maximum increase of Pokeweed mitogen induced proliferation [1]: 18% | activation at 6 µM ([1]; Homo sapiens, Lymphocyte, donor 1, control 53384, 0.006 mM, read-out: % Increase (+)): 18% | activation at 25 µM ([1]; Homo sapiens, Lymphocyte, donor 1, control 53384, 0.025 mM, read-out: % Increase (+)): 8% | activation at 6 µM ([1]; Homo sapiens, Lymphocyte, donor 1, second control 58731, 0.006 mM, read-out: % Increase (+)): 4% | activation at 6 µM ([1]; Homo sapiens, Lymphocyte, donor 4, 0.006 mM, read-out: % Increase (+)): 4% | inhibition at 50 µM ([1]; Homo sapiens, PBMC, donor 1, control 53384, 0.05 mM, read-out: % Decrease (-)): 14% | inhibition at 25 µM ([1]; Homo sapiens, PBMC, donor 1, second control 58731, 0.025 mM, read-out: % Decrease (-)): 1% | inhibition at 50 µM ([1]; Homo sapiens, PBMC, donor 1, second control 58731, 0.05 mM, read-out: % Decrease (-)): 7% | inhibition at 25 µM ([1]; Homo sapiens, PBMC, donor 2, 0.025 mM, read-out: % Decrease (-)): 19% | inhibition at 50 µM ([1]; Homo sapiens, PBMC, donor 2, 0.05 mM, read-out: % Decrease (-)): 19% | inhibition at 125 µM ([1]; Homo sapiens, PBMC, donor 2, 0.125 mM, read-out: % Decrease (-)): 16% | inhibition at 6 µM ([1]; Homo sapiens, PBMC, donor 3, 0.006 mM, read-out: % Decrease (-)): 4% | inhibition at 25 µM ([1]; Homo sapiens, PBMC, donor 3, 0.025 mM, read-out: % Decrease (-)): 22% | inhibition at 200 µM ([1]; Homo sapiens, PBMC, donor 3, 0.2 mM, read-out: % Decrease (-)): 27% | inhibition at 25 µM ([1]; Homo sapiens, PBMC, donor 4, 0.025 mM, read-out: % Decrease (-)): 11% | inhibition at 50 µM ([1]; Homo sapiens, PBMC, donor 4, 0.05 mM, read-out: % Decrease (-)): 18% | 3H-thymidine incorporation ([1]; donor 1, control 53384, 0.006 mM): 62772 ± 2781 | 3H-thymidine incorporation ([1]; donor 1, control 53384, 0.025 mM): 56449 ± 2090 | 3H-thymidine incorporation ([1]; donor 1, control 53384, 0.05 mM): 45844 ± 1152 | 3H-thymidine incorporation ([1]; donor 1, second control 58731, 0.006 mM): 61100 ± 4701 | 3H-thymidine incorporation ([1]; donor 1, second control 58731, 0.025 mM): 57852 ± 3166 | 3H-thymidine incorporation ([1]; donor 1, second control 58731, 0.05 mM): 54840 ± 942 | 3H-thymidine incorporation ([1]; donor 2, 0.025 mM): 67565 ± 5857 | 3H-thymidine incorporation ([1]; donor 2, 0.05 mM): 67429 ± 3657 | 3H-thymidine incorporation ([1]; donor 2, 0.125 mM): 70197 ± 5940 | 3H-thymidine incorporation ([1]; donor 3, 0.006 mM): 40425 ± 1158 | 3H-thymidine incorporation ([1]; donor 3, 0.025 mM): 32818 ± 4806 | 3H-thymidine incorporation ([1]; donor 3, 0.2 mM): 30453 ± 2974 | 3H-thymidine incorporation ([1]; donor 4, 0.006 mM): 39090 ± 4853 | 3H-thymidine incorporation ([1]; donor 4, 0.025 mM): 33122 ± 4539 | 3H-thymidine incorporation ([1]; donor 4, 0.05 mM): 30500 ± 2132 | suppressive effect on Pokeweed mitogen induced proliferation ([1]; especially at relatively higher concentrations): generally a suppressive effect | immunopotentiating effect on Pokeweed mitogen induced proliferation [1, 6]: did not have any significant immunopotentiating effect | suppression of SAC induced B cell proliferation [2]: slight suppression of B cell proliferation in some cases | 3H-thymidine incorporation ([2]; SAC 1:100, 0.0125 mM): 31582 ± 5535 | 3H-thymidine incorporation ([2]; SAC 1:100, 0.025 mM): 30876 ± 1757 | 3H-thymidine incorporation ([2]; SAC 1:100, 0.05 mM): 31036 ± 2225 | 3H-thymidine incorporation ([2]; SAC 1:100, 0.6 mM): 31549 ± 1496 | 3H-thymidine incorporation ([2]; SAC 1:1000, 0.0125 mM): 18079 ± 829 | 3H-thymidine incorporation ([2]; SAC 1:1000, 0.025 mM): 18897 ± 1334 | 3H-thymidine incorporation ([2]; SAC 1:1000, 0.05 mM): 17240 ± 1634 | 3H-thymidine incorporation ([2]; SAC 1:1000, 0.2 mM): 16618 ± 2378 | augmenting effect on SAC induced B cell proliferation [2, 6]: neither an effect on Staphylococcus aureus cowan induced B cell proliferation; also recorded: no augmenting effect | T cell proliferative response after addition of compound ([3]; FIG. 3, PHA + Cyclosporin A + compound): 43,000 CPM | reversal of cyclosporin mediated suppression (partial) ([3]; magnitude of cyclosporin mediated suppression higher, T cell mitogens): over 50% | restoration of lymphocyte proliferation ([3]; suppression about half of the total response, mitogen not stated): completely restored the lymphocyte proliferation | reconstitution of immune response ([3]; suppression low, lower concentration of cyclosporin, T cell mitogens): essentially complete | % Specific Cytotoxicity ([4]; compound (0.05)): 9% | % Specific Cytotoxicity ([4]; compound (0.1)): 22% | % Specific Cytotoxicity ([4]; compound (0.2)): 26% | cytotoxic T lymphocyte activity ([4]; specific fresh phytohemagglutinin induced lymphoblasts): increased | in vitro antiviral activity [5]: limited in vitro antiviral activity
